# Source: patent US9655870B2, “Homeopathic drug composition and methods of use thereof” (priority 2002, dated 2017)
# Test system: patients with at least moderate allergies
# Experiment: Allergy study (Example 2)
# Type: in vivo, human
# Description: Table 3. Table 3 is the clinical data from all patients who reported at least moderate allergies at the pre-study.
smiles,measurement,setting,value
O=C(CCNC(=O)OCc1ccccc1)NCCS(=O)(=O)O [Taurox SB],average reduction in allergy symptom frequency,"five of the eight patients, p=0.017",82%
same,Allergy (lower numbers indicates less frequent allergies),"patient 102, week 0",10
same,Allergy (lower numbers indicates less frequent allergies),"patient 102, week 1",10
same,Allergy (lower numbers indicates less frequent allergies),"patient 102, week 2",10
same,Allergy (lower numbers indicates less frequent allergies),"patient 102, week 3",10
same,Allergy (lower numbers indicates less frequent allergies),"patient 102, week 4",10
same,Allergy (lower numbers indicates less frequent allergies),"patient 102, week 6",8.5
same,Allergy (lower numbers indicates less frequent allergies),"patient 102, week 7",8.5
same,Allergy (lower numbers indicates less frequent allergies),"patient 102, week 8",8.5
same,Allergy (lower numbers indicates less frequent allergies),"patient 102, week 9",8.5
same,Allergy (lower numbers indicates less frequent allergies),"patient 102, week 10",10
same,Allergy (lower numbers indicates less frequent allergies),"patient 102, week 11",10
same,Allergy (lower numbers indicates less frequent allergies),"patient 103, week 0",8
same,Allergy (lower numbers indicates less frequent allergies),"patient 103, week 1",7
same,Allergy (lower numbers indicates less frequent allergies),"patient 103, week 2",3
same,Allergy (lower numbers indicates less frequent allergies),"patient 103, week 5",3
same,Allergy (lower numbers indicates less frequent allergies),"patient 103, week 7",3
same,Allergy (lower numbers indicates less frequent allergies),"patient 103, week 8",3
same,Allergy (lower numbers indicates less frequent allergies),"patient 103, week 9",3
same,Allergy (lower numbers indicates less frequent allergies),"patient 201, week 0",10
same,Allergy (lower numbers indicates less frequent allergies),"patient 201, week 1",5
same,Allergy (lower numbers indicates less frequent allergies),"patient 201, week 2",1
same,Allergy (lower numbers indicates less frequent allergies),"patient 201, week 3",0
same,Allergy (lower numbers indicates less frequent allergies),"patient 201, week 4",1
same,allergy symptoms,"patient 401, 8X dose for 3 months",less frequent and less severe
same,Allergy (lower numbers indicates less frequent allergies),"patient 401, week 0",9
same,Allergy (lower numbers indicates less frequent allergies),"patient 401, week 1",9
same,Allergy (lower numbers indicates less frequent allergies),"patient 401, week 3",3
same,Allergy (lower numbers indicates less frequent allergies),"patient 401, week 5",3
same,Allergy (lower numbers indicates less frequent allergies),"patient 401, week 6",2
same,Allergy (lower numbers indicates less frequent allergies),"patient 401, week 7",2
same,Allergy (lower numbers indicates less frequent allergies),"patient 401, week 9",3
same,Allergy (lower numbers indicates less frequent allergies),"patient 401, week 10",4
same,Allergy (lower numbers indicates less frequent allergies),"patient 401, week 11",3
same,Allergy (lower numbers indicates less frequent allergies),"patient 402, week 0",6
same,Allergy (lower numbers indicates less frequent allergies),"patient 402, week 1",3
same,Allergy (lower numbers indicates less frequent allergies),"patient 402, week 2",2
same,Allergy (lower numbers indicates less frequent allergies),"patient 402, week 3",2
same,Allergy (lower numbers indicates less frequent allergies),"patient 402, week 4",3
same,Allergy (lower numbers indicates less frequent allergies),"patient 701, week 0",10
same,Allergy (lower numbers indicates less frequent allergies),"patient 701, week 2",10
same,Allergy (lower numbers indicates less frequent allergies),"patient 701, week 3",10
same,Allergy (lower numbers indicates less frequent allergies),"patient 701, week 4",10
same,Allergy (lower numbers indicates less frequent allergies),"patient 701, week 5",10
same,Allergy (lower numbers indicates less frequent allergies),"patient 701, week 6",10
same,severe allergic response to known allergens,"patient 702, 8X dose",marked reduction
same,Allergy (lower numbers indicates less frequent allergies),"patient 702, week 0",10
same,Allergy (lower numbers indicates less frequent allergies),"patient 702, week 1",10
same,Allergy (lower numbers indicates less frequent allergies),"patient 702, week 2",10
same,Allergy (lower numbers indicates less frequent allergies),"patient 702, week 3",5
same,Allergy (lower numbers indicates less frequent allergies),"patient 702, week 4",6
same,Allergy (lower numbers indicates less frequent allergies),"patient 702, week 5",3
same,Allergy (lower numbers indicates less frequent allergies),"patient 703, week 0",10
same,Allergy (lower numbers indicates less frequent allergies),"patient 703, week 1",10
same,Allergy (lower numbers indicates less frequent allergies),"patient 703, week 2",10
same,Allergy (lower numbers indicates less frequent allergies),"patient 703, week 3",10
same,Allergy (lower numbers indicates less frequent allergies),"patient 703, week 4",10
same,Allergy (lower numbers indicates less frequent allergies),"patient 703, week 5",10
same,Allergy (lower numbers indicates less frequent allergies),"patient 703, week 6",10
same,Allergy (lower numbers indicates less frequent allergies),"patient 703, week 7",10
same,Allergy (lower numbers indicates less frequent allergies),"patient 703, week 8",10
same,"allergies, most patients of Table 3",patients with at least moderate allergies at pre-study,decrease in allergies
